Target: T1, ASICs (Mus musculus, UniProt Q6NXK8)
T1 construct: Primary neuronal cultures were prepared from embryonic Swiss mice at 15 to 16 days of gestation; endogenous in cells
T1 sequence (Q6NXK8 1-526): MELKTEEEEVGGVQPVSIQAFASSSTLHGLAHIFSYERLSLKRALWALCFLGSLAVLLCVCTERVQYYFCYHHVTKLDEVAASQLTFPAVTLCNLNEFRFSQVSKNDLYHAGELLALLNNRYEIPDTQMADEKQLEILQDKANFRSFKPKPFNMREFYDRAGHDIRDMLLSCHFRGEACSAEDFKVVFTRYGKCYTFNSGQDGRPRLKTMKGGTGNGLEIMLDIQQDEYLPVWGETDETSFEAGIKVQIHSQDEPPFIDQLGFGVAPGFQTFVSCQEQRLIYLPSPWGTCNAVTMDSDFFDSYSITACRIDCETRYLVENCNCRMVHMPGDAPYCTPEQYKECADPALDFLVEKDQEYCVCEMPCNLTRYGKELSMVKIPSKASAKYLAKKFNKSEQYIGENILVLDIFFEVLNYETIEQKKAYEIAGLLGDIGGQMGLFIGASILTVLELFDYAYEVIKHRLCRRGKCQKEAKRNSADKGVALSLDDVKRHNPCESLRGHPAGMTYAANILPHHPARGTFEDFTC
Experiment: Acid (pH 7.0/7.1)-induced membrane depolarization and neuronal firing, current-clamp recording
Assay type: cell-based
Text: Unlike ischemia, only moderate pH changes (e.g., ˜0.3 pH unit) are reported in brain parenchyma during seizures (Chesler et al., 1988: Chesler et al., 1992), although pH in the synaptic cleft may be much lower (Chesler et al., 1992; Wemmie et al., 2006). […] One possibility is that voltage-clamp recording has relatively low sensitivity to resolve small current in whole-cell configuration. To provide more evidence that the decreases of pHo to the level seen in epilepsy can indeed activate the ASICs and cause neuronal excitation, we have also used current-clamp recording to study changes of membrane depolarization and neuronal firing by small changes of pHo. Due to the large input resistance of most CNS neurons (e.g., ˜500 MΩ), even a small membrane current (e.g., 10-20 pA, which is difficult to resolve in voltage-clamp recording in general) can induce significant membrane depolarization in current-clamp conditions. Mouse cortical neurons were used for current-clamp recordings 14 days after the culture.
Cortical neuronal culture. Primary neuronal cultures were prepared from embryonic Swiss mice at 15 to 16 days of gestation according to our previously described techniques (Xiong et al., 2004). In brief, cerebral cortices from 10 to 12 embryos were dissected and incubated with 0.05% trypsin-EDTA for 10 min, dissociated by trituration with a fire-polished glass pipette, and plated on poly-L-ornithine-coated culture dishes at a density of 0.5×10^6 cells per dish. Neurons were cultured with Neurobasal medium supplemented with B27 (Invitrogen). The cultures were maintained at 37° C. in a humidified 5% CO2 atmosphere incubator and were used for experiments after 12-14 days.
Patch clamp techniques. Whole-cell voltage-clamp and current-clamp recordings were performed as described in our previous studies (Xiong et al., 2004). […] Whole-cell currents were recorded using Axopatch 200B amplifiers with pCLAMP software (Axon Instruments, CA, USA). […]

Compound: NC(N)=NC(=O)c1nc(Cl)c(N)nc1N [amiloride, 3,5-diamino-6-chloro-N(diaminomethylidene)pyrazine-2-carboxamide]
- effect on acid-induced neuronal excitation (membrane depolarization, firing rate) (pH 7.0, amiloride 100 μM or synthetic PcTX1 20 nM): largely and significantly reduced

Compound: Psalmotoxin 1 [PcTX1]
- effect on acid-induced depolarization and firing of action potentials (pH 7.1): sensitive to PcTX1 inhibition

Reference: patent US7892764B2, “System for seizure suppression” (priority 2006, dated 2011)
